According to patent US8030443B2, “Squamous cell carcinoma antigen-derived peptide binding to HLA-A24 molecule” (Kurume University, priority 2005, dated 2011):

Test system: peptide-specific IgG in sera of cancer patients and healthy donors
Experiment: Measurement of anti-peptide IgG in plasma by LUMINEX multiplexed flow cytometric assay
Format: binding, human
Summary of the method: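 Plasma diluted 1/100 incubated with peptide-coupled colour-coded beads 2 h at RT, then biotinylated goat anti-human IgG (γ-chain) 1 h and streptavidin-PE 30 min; fluorescence read by multiplexed flow cytometry, >100 counted significant. Specificity checked by three rounds of absorption on corresponding versus irrelevant SCCA peptide.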

KFMFDLFQQF (SCCA 10-19 peptide) [SCCA-derived peptide, position 10-19]
Total: healthy donors with significant peptide-reactive IgG / donors tested (10 healthy donors, significant when fluorescence intensity exceeded 100 at 1/100 dilution): 1/10
Total: cancer patients with significant peptide-reactive IgG / patients tested (71 cancer patients, significant when fluorescence intensity exceeded 100 at 1/100 dilution): 12/71
Fluorescence intesity (serum of Breast Ca. patient #36, 1:100 dilution): 66
Fluorescence intesity (serum of Breast Ca. patient #37, 1:100 dilution): 0
Fluorescence intesity (serum of Breast Ca. patient #38, 1:100 dilution): 27
Fluorescence intesity (serum of Breast Ca. patient #39, 1:100 dilution): 38
Fluorescence intesity (serum of Breast Ca. patient #40, 1:100 dilution): 0
Fluorescence intesity (serum of Breast Ca. patient #41, 1:100 dilution): 201
Fluorescence intesity (serum of Breast Ca. patient #42, 1:100 dilution): 0
Fluorescence intesity (serum of Breast Ca. patient #43, 1:100 dilution): 44
Fluorescence intesity (serum of Breast Ca. patient #44, 1:100 dilution): 18
Fluorescence intesity (serum of Breast Ca. patient #45, 1:100 dilution): 55
Fluorescence intesity (serum of Colon Ca. patient #66, 1:100 dilution): 5
Fluorescence intesity (serum of Colon Ca. patient #67, 1:100 dilution): 79
Fluorescence intesity (serum of Colon Ca. patient #68, 1:100 dilution): 0
Fluorescence intesity (serum of Colon Ca. patient #69, 1:100 dilution): 2
Fluorescence intesity (serum of Colon Ca. patient #70, 1:100 dilution): 17
Fluorescence intesity (serum of Colon Ca. patient #71, 1:100 dilution): 6
Fluorescence intesity (serum of Gastric Ca. patient #56, 1:100 dilution): 38
Fluorescence intesity (serum of Gastric Ca. patient #57, 1:100 dilution): 11
Fluorescence intesity (serum of Gastric Ca. patient #58, 1:100 dilution): 0
Fluorescence intesity (serum of Gastric Ca. patient #59, 1:100 dilution): 177
Fluorescence intesity (serum of Gastric Ca. patient #60, 1:100 dilution): 4
Fluorescence intesity (serum of Gastric Ca. patient #61, 1:100 dilution): 81
Fluorescence intesity (serum of Gastric Ca. patient #62, 1:100 dilution): 0
Fluorescence intesity (serum of Gastric Ca. patient #63, 1:100 dilution): 0
Fluorescence intesity (serum of Gastric Ca. patient #64, 1:100 dilution): 9
Fluorescence intesity (serum of Gastric Ca. patient #65, 1:100 dilution): 0
Fluorescence intesity (serum of Healthy Donor #1, 1:100 dilution): 0
Fluorescence intesity (serum of Healthy Donor #2, 1:100 dilution): 68
Fluorescence intesity (serum of Healthy Donor #3, 1:100 dilution): 0
Fluorescence intesity (serum of Healthy Donor #4, 1:100 dilution): 0
Fluorescence intesity (serum of Healthy Donor #5, 1:100 dilution): 8
Fluorescence intesity (serum of Healthy Donor #6, 1:100 dilution): 0
Fluorescence intesity (serum of Healthy Donor #7, 1:100 dilution): 0
Fluorescence intesity (serum of Healthy Donor #8, 1:100 dilution): 345
Fluorescence intesity (serum of Healthy Donor #9, 1:100 dilution): 34
Fluorescence intesity (serum of Healthy Donor #10, 1:100 dilution): 0
Fluorescence intesity (serum of Pancreas Ca. patient #46, 1:100 dilution): 0
Fluorescence intesity (serum of Pancreas Ca. patient #47, 1:100 dilution): 12
Fluorescence intesity (serum of Pancreas Ca. patient #48, 1:100 dilution): 206
Fluorescence intesity (serum of Pancreas Ca. patient #49, 1:100 dilution): 0
Fluorescence intesity (serum of Pancreas Ca. patient #50, 1:100 dilution): 311
Fluorescence intesity (serum of Pancreas Ca. patient #51, 1:100 dilution): 0
Fluorescence intesity (serum of Pancreas Ca. patient #52, 1:100 dilution): 172
Fluorescence intesity (serum of Pancreas Ca. patient #53, 1:100 dilution): 0
Fluorescence intesity (serum of Pancreas Ca. patient #54, 1:100 dilution): 11
Fluorescence intesity (serum of Pancreas Ca. patient #55, 1:100 dilution): 0
Fluorescence intesity (serum of Uterine cervical Ca. patient #1, 1:100 dilution): 25
Fluorescence intesity (serum of Uterine cervical Ca. patient #2, 1:100 dilution): 21
Fluorescence intesity (serum of Uterine cervical Ca. patient #3, 1:100 dilution): 11
Fluorescence intesity (serum of Uterine cervical Ca. patient #4, 1:100 dilution): 5
Fluorescence intesity (serum of Uterine cervical Ca. patient #5, 1:100 dilution): 14
Fluorescence intesity (serum of Uterine cervical Ca. patient #6, 1:100 dilution): 786
Fluorescence intesity (serum of Uterine cervical Ca. patient #7, 1:100 dilution): 14
Fluorescence intesity (serum of Uterine cervical Ca. patient #8, 1:100 dilution): 38
Fluorescence intesity (serum of Uterine cervical Ca. patient #9, 1:100 dilution): 76
Fluorescence intesity (serum of Uterine cervical Ca. patient #10, 1:100 dilution): 16
Fluorescence intesity (serum of Uterine cervical Ca. patient #11, 1:100 dilution): 21
Fluorescence intesity (serum of Uterine cervical Ca. patient #12, 1:100 dilution): 41
Fluorescence intesity (serum of Uterine cervical Ca. patient #13, 1:100 dilution): 22
Fluorescence intesity (serum of Uterine cervical Ca. patient #14, 1:100 dilution): 22
Fluorescence intesity (serum of Uterine cervical Ca. patient #15, 1:100 dilution): 154
Fluorescence intesity (serum of Uterine cervical Ca. patient #16, 1:100 dilution): 225
Fluorescence intesity (serum of Uterine cervical Ca. patient #17, 1:100 dilution): 50
Fluorescence intesity (serum of Uterine cervical Ca. patient #18, 1:100 dilution): 45
Fluorescence intesity (serum of Uterine cervical Ca. patient #19, 1:100 dilution): 67
Fluorescence intesity (serum of Uterine cervical Ca. patient #20, 1:100 dilution): 107
Fluorescence intesity (serum of Uterine cervical Ca. patient #21, 1:100 dilution): 22
Fluorescence intesity (serum of Uterine cervical Ca. patient #22, 1:100 dilution): 19
Fluorescence intesity (serum of Uterine cervical Ca. patient #23, 1:100 dilution): 78
Fluorescence intesity (serum of Uterine cervical Ca. patient #24, 1:100 dilution): 2277
Fluorescence intesity (serum of Uterine cervical Ca. patient #25, 1:100 dilution): 19
Fluorescence intesity (serum of Uterine cervical Ca. patient #26, 1:100 dilution): 88
Fluorescence intesity (serum of Uterine cervical Ca. patient #27, 1:100 dilution): 33
Fluorescence intesity (serum of Uterine cervical Ca. patient #28, 1:100 dilution): 228
Fluorescence intesity (serum of Uterine cervical Ca. patient #29, 1:100 dilution): 15
Fluorescence intesity (serum of Uterine cervical Ca. patient #30, 1:100 dilution): 44
Fluorescence intesity (serum of Uterine cervical Ca. patient #31, 1:100 dilution): 107
Fluorescence intesity (serum of Uterine cervical Ca. patient #32, 1:100 dilution): 21
Fluorescence intesity (serum of Uterine cervical Ca. patient #33, 1:100 dilution): 92
Fluorescence intesity (serum of Uterine cervical Ca. patient #34, 1:100 dilution): 17
Fluorescence intesity (serum of Uterine cervical Ca. patient #35, 1:100 dilution): 17
